# According to patent US20220062278A1, “SMALL MOLECULE INHIBITORS OF THE ANDROGEN RECEPTOR ACTIVITY AND/OR EXPRESSION AND USES THEREOF” (Arizona Board of Regents on Behalf of the Univeristy of …, priority 2018, published 2022):
# Target: T1, AR (Homo sapiens, UniProt P10275)
# T1 sequence (P10275 669-920 limits assumed): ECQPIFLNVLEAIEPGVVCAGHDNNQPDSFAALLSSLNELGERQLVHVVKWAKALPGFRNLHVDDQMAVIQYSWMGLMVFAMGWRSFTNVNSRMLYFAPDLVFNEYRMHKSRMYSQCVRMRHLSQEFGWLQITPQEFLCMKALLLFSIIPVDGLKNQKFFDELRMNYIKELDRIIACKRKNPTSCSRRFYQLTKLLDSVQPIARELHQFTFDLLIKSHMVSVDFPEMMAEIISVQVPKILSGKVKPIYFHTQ
# Assay: GeneBlazer assay, inhibition against AR activity
# Format: cell-based
# Settings: 10 uM; Table II
# Source text: Tables II, III and IV show % inhibition against AR activity at 10 μm within a GeneBlazer assay, and IC50 values (nM) in GeneBlazer assay.
row,inhibition at 10 µM [%],Structure (SMILES)
1,24.6,"CCCCn1nnnc1C(c1cccc(O)c1)N1CCN(C(=O)OC(C)(C)C)CC1 (stereo not drawn) [Compound 56, tert-butyl 4-((1-butyl-1H-tetrazol-5-yl)(3-hydroxyphenyl)methyl)piperazine-1-carboxylate]"
2,19.9,"CCCCn1nnnc1C(c1cccc(O)c1)N1CCN(c2ccccn2)CC1 (stereo not drawn) [Compound 62, 3-((1-butyl-1H-tetrazol-5-yl)(4-(pyridin-2-yl)piperazin-1-yl)methyl)phenol]"
3,101,"CC(C)n1nnnc1C(c1ccnc2ccccc12)N1CCN(c2c(Cl)cncc2Cl)CC1 (stereo not drawn) [Compound 51, 4-((4-(3,5-dichloropyridin-4-yl)piperazin-1-yl)(1-isopropyl-1H-tetrazol-5-yl)methyl)quinoline]"
4,108,"CC(C)(C)n1nnnc1C(c1ccc2ccccc2c1)N1CCN(c2c(Cl)cncc2Cl)CC1 (stereo not drawn) [Compound 41, 1-((1-(tert-butyl)-1H-tetrazol-5-yl)(naphthalen-2-yl)methyl)-4-(3,5-dichloropyridin-4-yl)piperazine]"
5,100,"Cc1ccc(C(c2nnnn2C(C)(C)C)N2CCN(c3c(Cl)cncc3Cl)CC2)o1 (stereo not drawn) [Compound 49, 1-((1-(tert-butyl)-1H-tetrazol-5-yl)(5-methylfuran-2-yl)methyl)-4-(3,5-dichloropyridin-4-yl)piperazine]"
6,112,"CCCCn1nnnc1C(c1cccc(O)c1)N1CCN(c2cc(C)ccc2C)CC1 (stereo not drawn) [Compound 72, 3-((1-butyl-1H-tetrazol-5-yl)(4-(2,5-dimethylphenyl)piperazin-1-yl)methyl)phenol]"
7,109,"CCCCn1nnnc1C(c1cccc(O)c1)N1CCN(c2c(C)cccc2C)CC1 (stereo not drawn) [Compound 55, 3-((1-butyl-1H-tetrazol-5-yl)(4-(2,6-dimethylphenyl)piperazin-1-yl)methyl)phenol]"
8,95.8,"CCCCC(c1nnnn1C(C)C)N1CCN(c2c(Cl)cncc2Cl)CC1 (stereo not drawn) [Compound 52, 1-(3,5-dichloropyridin-4-yl)-4-(1-(1-isopropyl-1H-tetrazol-5-yl)pentyl)piperazine]"
9,97.6,"CCCCn1nnnc1C(c1cccc2ccccc12)N1CCN(c2c(Cl)cncc2Cl)CC1 (stereo not drawn) [Compound 38, 1-((1-butyl-1H-tetrazol-5-yl)(naphthalen-1-yl)methyl)-4-(3,5-dichloropyridin-4-yl)piperazine]"
10,100,"CCCCn1nnnc1C(c1ccncc1)N1CCN(c2c(Cl)cncc2Cl)CC1 (stereo not drawn) [Compound 30, 1-((1-butyl-1H-tetrazol-5-yl)(pyridin-4-yl)methyl)-4-(3,5-dichloropyridin-4-yl)piperazine]"
11,120,"Oc1cccc(C(c2nnnn2Cc2ccccc2)N2CCN(c3c(Cl)cncc3Cl)CC2)c1 (stereo not drawn) [Compound 19, 3-((1-benzyl-1H-tetrazol-5-yl)(4-(3,5-dichloropyridin-4-yl)piperazin-1-yl)methyl)phenol]"
12,17.2,"CC(C)(C)n1nnnc1C(c1cccc(O)c1)N1CCN(C/C=C/c2ccccc2)CC1 (stereo not drawn) [Compound 68, (E)-3-((1-(tert-butyl)-1H-tetrazol-5-yl)(4-cinnamylpiperazin-1-yl)methyl)phenol]"
13,97.5,"COc1ccc(C(c2nnnn2C(C)(C)C)N2CCN(c3c(Cl)cncc3Cl)CC2)cc1 (stereo not drawn) [Compound 33, 1-((1-(tert-butyl)-1H-tetrazol-5-yl)(4-methoxyphenyl)methyl)-4-(3,5-dichloropyridin-4-yl)piperazine]"
14,87.6,"CCCCn1nnnc1C(c1ccc2ccccc2c1)N1CCN(c2c(Cl)cncc2Cl)CC1 (stereo not drawn) [Compound 40, 1-((1-butyl-1H-tetrazol-5-yl)(naphthalen-2-yl)methyl)-4-(3,5-dichloropyridin-4-yl)piperazine]"
15,91.6,"CCCCn1nnnc1C(c1ccc(OC)cc1)N1CCN(c2c(Cl)cncc2Cl)CC1 (stereo not drawn) [Compound 32, 1-((1-butyl-1H-tetrazol-5-yl)(4-methoxyphenyl)methyl)-4-(3,5-dichloropyridin-4-yl)piperazine]"
16,95.3,"CCCCn1nnnc1C(C)N1CCN(c2c(Cl)cncc2Cl)CC1 (stereo not drawn) [Compound 6, 1-(1-(1-butyl-1H-tetrazol-5-yl)ethyl)-4-(3,5-dichloropyridin-4-yl)piperazine]"
17,98,"CCCCn1nnnc1C(c1cccc(O)c1)N1CCN(c2c(Cl)cccc2Cl)CC1 (stereo not drawn) [Compound 25, 3-((1-butyl-1H-tetrazol-5-yl)(4-(2,6-dichlorophenyl)piperazin-1-yl)methyl)phenol]"
18,100,"CCCCn1nnnc1C(c1ccc(C)o1)N1CCN(c2c(Cl)cncc2Cl)CC1 (stereo not drawn) [Compound 48, 1-((1-butyl-1H-tetrazol-5-yl)(5-methylfuran-2-yl)methyl)-4-(3,5-dichloropyridin-4-yl)piperazine]"

row,inhibition at 10 µM [%],Structure (SMILES)
1,108,"CC(C)(C)n1nnnc1C(c1cc2ccccc2o1)N1CCN(c2c(Cl)cncc2Cl)CC1 (stereo not drawn) [Compound 2, 1-(benzofuran-2-yl(1-(tert-butyl)-1H-tetrazol-5-yl)methyl)-4-(3,5-dichloropyridin-4-yl)piperazine]"
2,101,"Clc1cncc(Cl)c1N1CCN(Cc2cc3ccccc3o2)CC1 [Compound 23, 1-(benzofuran-2-ylmethyl)-4-(3,5-dichloropyridin-4-yl)piperazine]"
3,63.9,"CCCCn1nnnc1C(c1cccc(O)c1)N1CCN(c2ccccc2)CC1 (stereo not drawn) [Compound 67, 3-((1-butyl-1H-tetrazol-5-yl)(4-phenylpiperazin-1-yl)methyl)phenol]"
4,111,"Cc1cccc(C)c1-n1nnnc1C(c1cccc(O)c1)N1CCN(c2c(Cl)cncc2Cl)CC1 (stereo not drawn) [Compound 20, 3-((4-(3,5-dichloropyridin-4-yl)piperazin-1-yl)(1-(2,6-dimethylphenyl)-1H-tetrazol-5-yl)methyl)phenol]"
5,109,"CC(C)(C)n1nnnc1C(CCc1ccccc1)N1CCN(c2c(Cl)cncc2Cl)CC1 (stereo not drawn) [Compound 70, 1-(1-(1-(tert-butyl)-1H-tetrazol-5-yl)-3-phenylpropyl)-4-(3,5-dichloropyridin-4-yl)piperazine]"
6,11.9,"CCCCn1nnnc1C(c1cccc(O)c1)N1CCN(C/C=C/c2ccccc2)CC1 (stereo not drawn) [Compound 71, (E)-3-((1-butyl-1H-tetrazol-5-yl)(4-cinnamylpiperazin-1-yl)methyl)phenol]"
7,86,"CC(C)n1nnnc1C(c1cccc(O)c1)N1CCN(c2c(Cl)cncc2Cl)CC1 (stereo not drawn) [Compound 15, 3-((4-(3,5-dichloropyridin-4-yl)piperazin-1-yl)(1-isopropyl-1H-tetrazol-5-yl)methyl)phenol]"
8,106,"CC(C)(C)n1nnnc1C(c1ccc(C#N)cc1)N1CCN(c2c(Cl)cncc2Cl)CC1 (stereo not drawn) [Compound 35, 4-((1-(tert-butyl)-1H-tetrazol-5-yl)(4-(3,5-dichloropyridin-4-yl)piperazin-1-yl)methyl)benzonitrile]"
9,101,"CCCCn1nnnc1C(c1ccccc1)N1CCN(c2c(Cl)cncc2Cl)CC1 (stereo not drawn) [Compound 4, 1-((1-butyl-1H-tetrazol-5-yl)(phenyl)methyl)-4-(3,5-dichloropyridin-4-yl)piperazine]"
10,68.1,"Oc1cccc(CN2CCN(c3c(Cl)cncc3Cl)CC2)c1 [Compound 22, 3-((4-(3,5-dichloropyridin-4-yl)piperazin-1-yl)methyl)phenol]"
11,58.4,"CCCCn1nnnc1C(c1cccc(O)c1)N1CCN(c2cccc(C(F)(F)F)n2)CC1 (stereo not drawn) [Compound 58, 3-((1-butyl-1H-tetrazol-5-yl)(4-(6-(trifluoromethyl)pyridin-2-yl)piperazin-1-yl)methyl)phenol]"
12,105,"CCCCn1nnnc1C(c1cccc(O)c1)N1CCN(c2ncccc2C(F)(F)F)CC1 (stereo not drawn) [Compound 60, 3-((1-butyl-1H-tetrazol-5-yl)(4-(3-(trifluoromethyl)pyridin-2-yl)piperazin-1-yl)methyl)phenol]"
13,99.8,"CCCCn1nnnc1C(c1ccc(C#N)cc1)N1CCN(c2c(Cl)cncc2Cl)CC1 (stereo not drawn) [Compound 34, 4-((1-butyl-1H-tetrazol-5-yl)(4-(3,5-dichloropyridin-4-yl)piperazin-1-yl)methyl)benzonitrile]"
14,111,"CC(C)(C)n1nnnc1C(/C=C/c1ccccc1)N1CCN(c2c(Cl)cncc2Cl)CC1 (stereo not drawn) [Compound 43, (E)-1-(1-(1-(tert-butyl)-1H-tetrazol-5-yl)-3-phenylallyl)-4-(3,5-dichloropyridin-4-yl)piperazine]"
15,110,"CCCCn1nnnc1C(c1ccnc2ccccc12)N1CCN(c2c(Cl)cncc2Cl)CC1 (stereo not drawn) [Compound 3, 4-((1-butyl-1H-tetrazol-5-yl)(4-(3,5-dichloropyridin-4-yl)piperazin-1-yl)methyl)quinoline]"
16,51.3,"CCCCn1nnnc1C(c1cccc(O)c1)N1CCN(c2ccc(F)cc2)CC1 (stereo not drawn) [Compound 54, 3-((1-butyl-1H-tetrazol-5-yl)(4-(4-fluorophenyl)piperazin-1-yl)methyl)phenol]"
17,72.4,"COC(=O)Cn1nnnc1C(c1cccc(O)c1)N1CCN(c2c(Cl)cncc2Cl)CC1 (stereo not drawn) [Compound 53, Methyl 2-(5-((4-(3,5-dichloropyridin-4-yl)piperazin-1-yl)(3-hydroxyphenyl)methyl)-1H-tetrazol-1-yl)acetate]"
18,96,"CCCCn1nnnc1C(CCc1ccccc1)N1CCN(c2c(Cl)cncc2Cl)CC1 (stereo not drawn) [Compound 69, 1-(1-(1-butyl-1H-tetrazol-5-yl)-3-phenylpropyl)-4-(3,5-dichloropyridin-4-yl)piperazine]"

# Same assay, conditions: Table II
row,IC50 [nM],Structure (SMILES)
1,790,"CCCCn1nnnc1C(c1cccc(O)c1)N1CCN(c2cc(C)ccc2C)CC1 (stereo not drawn) [Compound 72, 3-((1-butyl-1H-tetrazol-5-yl)(4-(2,5-dimethylphenyl)piperazin-1-yl)methyl)phenol]"
2,134,"Oc1cccc(C(c2nnnn2Cc2ccccc2)N2CCN(c3c(Cl)cncc3Cl)CC2)c1 (stereo not drawn) [Compound 19, 3-((1-benzyl-1H-tetrazol-5-yl)(4-(3,5-dichloropyridin-4-yl)piperazin-1-yl)methyl)phenol]"
3,1600,"CCCCn1nnnc1C(c1cccc(O)c1)N1CCN(c2c(Cl)cccc2Cl)CC1 (stereo not drawn) [Compound 25, 3-((1-butyl-1H-tetrazol-5-yl)(4-(2,6-dichlorophenyl)piperazin-1-yl)methyl)phenol]"
4,557,"CC(C)(C)n1nnnc1C(c1cc2ccccc2o1)N1CCN(c2c(Cl)cncc2Cl)CC1 (stereo not drawn) [Compound 2, 1-(benzofuran-2-yl(1-(tert-butyl)-1H-tetrazol-5-yl)methyl)-4-(3,5-dichloropyridin-4-yl)piperazine]"
5,1280,"CC(C)(C)n1nnnc1C(CCc1ccccc1)N1CCN(c2c(Cl)cncc2Cl)CC1 (stereo not drawn) [Compound 70, 1-(1-(1-(tert-butyl)-1H-tetrazol-5-yl)-3-phenylpropyl)-4-(3,5-dichloropyridin-4-yl)piperazine]"
6,523,"CCCCn1nnnc1C(c1ccnc2ccccc12)N1CCN(c2c(Cl)cncc2Cl)CC1 (stereo not drawn) [Compound 3, 4-((1-butyl-1H-tetrazol-5-yl)(4-(3,5-dichloropyridin-4-yl)piperazin-1-yl)methyl)quinoline]"
